# According to US8722731B2, “Furanyl compounds and the use thereof” (NovoMedix, LLC, priority 2010, dated 2014):
# What was measured:
# MDA-MB-468 breast tumors = test: Tumor growth inhibition in MDA-MB-468 mouse xenograft model for breast cancer (tumor volume); type: in vivo; conditions: qd 50 mg/kg IP, SCID mice
# Protocol: (§1) In one embodiment, the effects of a compound provided herein on tumor growth in a mouse animal model were evaluated. In specific embodiments, the mouse animal model was the MDA-MB-468 xenograft model for breast cancer. Studies were performed to evaluate the effect of a compound provided herein on the growth of MDA-MB-468 breast tumors in mice. The test system that was used is summarized below:
# (§2) Exemplary Protocol: Ten mice per group were inoculated s.c. on the left flank with 5×10^6 MDA-MB-468 cells. When tumors reached a mean volume of 100 or 200 mm^3, animals began treatment with a compound provided herein (See Table 4). Test article or vehicle were given once daily by IP injection for up to 21 days. Tumors were evaluated every Monday, Wednesday and Friday, body weights and condition were evaluated on a daily basis.
# Cell Culture: MDA-MB-468 breast cancer cells were grown in Liebowitz's L-15 with 10% fetal bovine serum and 1% pen/strep. Cells were routinely trypsinized and passaged 1:4. On the day of implantation, cells were washed in PBS, trypsinized and resuspended in complete media. Cells were washed 3× in serum free media (centrifuged 1000 rpm for 5 min). Cells were resuspended to a density of 1×10^8 cells/mL and diluted 1:1 with Matrigel. Cells were implanted s.c. using a 23 G needle in a volume of 0.1 mL.
# Tumor Measurement: Tumors were monitored daily. If, during a daily evaluation, an animal's tumor appeared to have exceeded 1500 mm^3, the tumor was measured; and animals with tumors greater than 1500 mm^3 and/or that had become necrotic and/or hindered movement were euthanized. Tumors were measured twice weekly by measuring each tumor in 2 dimensions, along the largest dimension (length, L) and perpendicular to this dimension (width, W). Tumor weights were calculated using the standard formula: (L×W^2)/2. The mean tumor weight and standard error of the mean were calculated for each group at each time point. An ANOVA was used to compare differences of primary tumor volume.
# (§3) Compound 1 was dosed in mice at a dose of, for example, qd 50 mg/kg, for 22 days or more.
# (§4) Compound 2 was dosed in mice at a dose of, for example, qd 20 mg/kg from day 0 to 7, then qd 10 mg/kg from day 8 and thereafter, for 22 days or more.
# H-460 = test: IC50 cell-based assay, adherent cells, H-460; conditions: Homo sapiens, NCI-H460, Lung, large cell carcinoma, 72 hours, read-out: IC50 of Compounds in Adherent Cell Types
# Protocol: (§5) In one embodiment, the IC50s of the compounds provided herein were determined in cell-based assays using adherent cells. In one embodiment, the activity of the compounds provided herein were determined in a cell-based assay using the triple negative breast cancer cell line MDA-MB-468. In one embodiment, the adherent cells used in the cell-based assays may be a cell type selected from Table 1. In one embodiment, the cell-based assay may be carried out as provided herein. On day 0, cells were seeded at 20,000 cells per well in 100 µL of media into individual wells of a 96-well tissue culture plate. The next day, compounds were diluted to twice the desired final concentration and added in 100 µL of media for a final volume of 200 μL. Standard solutions for each compound were prepared at 1000× concentration in DMSO. The highest concentration was 30 mM. Serial 1:1 dilutions were made from there for a 6- or 9-point curve (e.g., 30 mM, 15 mM, 7.5 mM, etc). Compounds were then diluted 1:500 in media, and 100 µL of the resulting solution was added to each well for a final dilution of 1:1000. Each concentration of compound was tested in triplicate. Cells were incubated at 37° C. with 5% CO2. After 72 hours, 20 μL of CellTiter 96 Aqueous One Solution Cell Proliferation Assay (Promega) was added to each well. Cells were placed back in the incubator, and the absorbance at 490 nm was read after 2-3 hours. The concentration of compound that decreased the number of metabolically active cells by 50% was determined and reported as the IC50. “Percent Viability” was determined by subtracting the average background value (media only) and expressed as a ratio to the average value obtained from cells treated with only DMSO.
# [1] = Percent weight change of animals in MDA-MB-468 xenograft study; type: in vivo, Mouse/SCID; conditions: qd 50 mg/kg IP, SCID mice
# Protocol: as §1, §2
# Animal Weight: All animals were weighed […] throughout the study. Group weight change was expressed as a daily group mean weight. Animals that lost greater than 20% of their total starting body weight were euthanized.
# as §3, §4
# MDA-MB-361 = test: IC50 cell-based assay, adherent cells, MDA-MB-361; conditions: Homo sapiens, Breast, Brain met Her2-neu + ER +, 72 hours, read-out: IC50 of Compounds in Adherent Cell Types
# Protocol: as §5
# HL-60 = test: IC50 cell-based assay, suspension cells, HL-60; conditions: Homo sapiens, Leukemia, AML, read-out: IC50 of Compounds in Suspension Cell Types
# Protocol: as §5
# (§6) In one embodiment, the IC50s of the compounds provided herein were determined in cell-based assays using suspension cells. In one embodiment, the activity of the compounds provided herein were determined in a cell-based assay using the JeKo-1 cell line (mantle cell lymphoma) or the Pfeiffer cell line (diffuse large B-cell lymphoma). In one embodiment, the suspension cells used in the cell-based assays may be a cell type selected from Table 2. Assays with suspension cells were similar except that 40,000-60,000 cells were added to each well and compounds were added immediately after cell plating.
# 1937 = test: IC50 cell-based assay, adherent cells, 1937; conditions: Breast, triple neg, 72 hours, read-out: IC50 of Compounds in Adherent Cell Types
# Protocol: as §5
# SupB15 = test: IC50 cell-based assay, suspension cells, SupB15; conditions: Homo sapiens, SUP-B15, Leukemia, B-ALL (Philadelphia chromosome+), read-out: IC50 of Compounds in Suspension Cell Types
# Protocol: as §5, §6
# RT-4 = test: IC50 cell-based assay, adherent cells, RT-4; conditions: Homo sapiens, Bladder, papilloma, 72 hours, read-out: IC50 of Compounds in Adherent Cell Types
# Protocol: as §5
# MCF-7 = test: IC50 cell-based assay, adherent cells, MCF-7; conditions: Homo sapiens, MCF7, Breast, ER+, 72 hours, read-out: IC50 of Compounds in Adherent Cell Types
# Protocol: as §5
compound,measurement,setting,value
"O=C(Nc1cc(C(F)(F)F)cc(C(F)(F)F)c1)c1cc(-c2ccccc2)oc1C(F)(F)F [Compound 1, 5-Phenyl-2-trifluoromethyl-furan-3-carboxylic acid (3,5-bis-trifluoromethyl-phenyl)-amide]","Tumor Volumes in Control and Treated Animals, mean",MDA-MB-468 breast tumors; Day 1,112.66 mm^3
same,"Tumor Volumes in Control and Treated Animals, mean",MDA-MB-468 breast tumors; Day 3,101.41 mm^3
same,"Tumor Volumes in Control and Treated Animals, mean",MDA-MB-468 breast tumors; Day 5,91.44 mm^3
same,"Tumor Volumes in Control and Treated Animals, mean",MDA-MB-468 breast tumors; Day 8,146.58 mm^3
same,"Tumor Volumes in Control and Treated Animals, mean",MDA-MB-468 breast tumors; Day 10,175.96 mm^3
same,"Tumor Volumes in Control and Treated Animals, mean",MDA-MB-468 breast tumors; Day 12,226.90 mm^3
same,"Tumor Volumes in Control and Treated Animals, mean",MDA-MB-468 breast tumors; Day 15,276.23 mm^3
same,"Tumor Volumes in Control and Treated Animals, mean",MDA-MB-468 breast tumors; Day 17,336.22 mm^3
same,"Tumor Volumes in Control and Treated Animals, mean",MDA-MB-468 breast tumors; Day 19,366.60 mm^3
same,"Tumor Volumes in Control and Treated Animals, mean",MDA-MB-468 breast tumors; Day 22,383.38 mm^3
same,IC50,H-460,10 to 20 µM
same,"Percent Weight Change of Control and Treated Animals, mean",[1]; Day 1,0.00%
same,"Percent Weight Change of Control and Treated Animals, mean",[1]; Day 2,−0.44%
same,"Percent Weight Change of Control and Treated Animals, mean",[1]; Day 3,−1.43%
same,"Percent Weight Change of Control and Treated Animals, mean",[1]; Day 4,−2.23%
same,"Percent Weight Change of Control and Treated Animals, mean",[1]; Day 5,−2.06%
same,"Percent Weight Change of Control and Treated Animals, mean",[1]; Day 6,−2.03%
same,"Percent Weight Change of Control and Treated Animals, mean",[1]; Day 7,−3.50%
same,"Percent Weight Change of Control and Treated Animals, mean",[1]; Day 8,−4.53%
same,"Percent Weight Change of Control and Treated Animals, mean",[1]; Day 9,−2.38%
same,"Percent Weight Change of Control and Treated Animals, mean",[1]; Day 10,−3.42%
same,"Percent Weight Change of Control and Treated Animals, mean",[1]; Day 11,−1.63%
same,"Percent Weight Change of Control and Treated Animals, mean",[1]; Day 12,1.40%
same,"Percent Weight Change of Control and Treated Animals, mean",[1]; Day 13,1.13%
same,"Percent Weight Change of Control and Treated Animals, mean",[1]; Day 14,−0.56%
same,"Percent Weight Change of Control and Treated Animals, mean",[1]; Day 15,2.28%
same,"Percent Weight Change of Control and Treated Animals, mean",[1]; Day 16,2.07%
same,"Percent Weight Change of Control and Treated Animals, mean",[1]; Day 17,2.03%
same,"Percent Weight Change of Control and Treated Animals, mean",[1]; Day 18,2.87%
same,"Percent Weight Change of Control and Treated Animals, mean",[1]; Day 19,4.84%
same,"Percent Weight Change of Control and Treated Animals, mean",[1]; Day 20,0.92%
same,"Percent Weight Change of Control and Treated Animals, mean",[1]; Day 21,1.87%
same,"Percent Weight Change of Control and Treated Animals, mean",[1]; Day 22,0.07%
same,IC50,MDA-MB-361,< 5 µM
same,IC50,HL-60,< 5 µM
same,IC50,1937,< 5 µM
same,IC50,SupB15,< 5 µM
same,IC50,RT-4,10 to 20 µM
same,IC50,MCF-7,< 5 µM
